The results in this text go back to patent publication US20220033434A1, “ANDROGEN RECEPTOR NUCLEIC ACIDS AND USES THEREOF” (Avidity Biosciences, Inc., priority 2016, published 2022).

In the oligonucleotide strings, read from the 5' end, every base follows the letter of its sugar. An asterisk marks phosphorothioate; unmarked linkages are phosphodiester. Other units and linkages are bracketed, terminal groups are in braces. A string of capitals states the bases alone. d = 2'-deoxy (DNA); m = 2'-O-methyl; f = 2'-fluoro

Common to all, as to type: cell-based, human
In one data set the test system is AR-SV(3). Nature of the data set: AR protein knock-down by Western blot after siRNA transfection in 22RV1 cells: AR-SV(3). The settings on record: 5 nM siRNA, 50 h post transfection, compared to controls. The protocol: (§1) In some instances, a set of AR siRNAs were identified that were predicted to be specific in human and non-human primates (NHP) and cross-reactive with NHPs but not rodent AR mRNA. To identify AR siRNAs that regulate both full length AR and clinically relevant AR splice variants, the search for AR siRNAs was focused primarily, but not exclusively, on exons 1, 2 and 3 of the AR gene, which are common to most AR isoforms. The resulting set of 50 AR siRNAs (Tables 1-3) was assessed in two prostate cancer lines that express high levels of either clinically relevant AR splice variants (22RV1, ATCC) or a full length AR T877A LBD mutant (LNCaP, ATCC). The response of LNCaP tumors in xenograft models to AR antagonists is known to correlate well with clinical responses.
(§2) To monitor their ability to downregulate various AR isoforms, each siRNA was formulated at a single final concentration of 5 nM with a commercially-available transfection reagent (Lipofectamine RNAiMAX, Life Technologies) according to the manufacturer's “forward transfection” instructions. At 50 h (22RV1) and 72 h (LNCaP) post transfection, cells were harvested, and lysed in RIPA buffer (Pierce) supplemented with HALT protease inhibitors (Pierce) using standard procedures. The protein concentration was determined using a BCA protein concentration kit (Pierce). To monitor AR levels in these lysates, proteins (30 ug/lane) were separated by PAGE on BOLT 4-12% Bis-Tris PA gels (Life Technologies), transferred to nitrocellulose using an iBlot dry blot system (Thermo Fisher), and probed with specific antibodies against a region of the N-terminal domain of human AR that is common in known clinically relevant splice variants (N20, Santa Cruz Biotech). A second antibody against α-Tubulin was used as control (P16, Santa Cruz Biotech). Levels of these proteins in the respective cell lysates were quantified on an Odyssey imaging system (LICOR) using appropriate secondary antibodies linked to IRDyes (800CW, 680RD).

A further data set concerns AR-SV(2). Nature of the data set: AR protein knock-down by Western blot after siRNA transfection in 22RV1 cells: AR-SV(2). The settings on record: 5 nM siRNA, 50 h post transfection, compared to controls. The procedure:
as §1, §2

Data set [1] concerns AR FL (full length AR T877A LBD mutant). Nature of the data set: AR protein knock-down by Western blot after siRNA transfection in LNCaP cells: AR FL. Conditions: 5 nM siRNA, 72 h post transfection, compared to controls. The procedure:
as §1, §2

The next data set relates to AR FL(1). Nature of the data set: AR protein knock-down by Western blot after siRNA transfection in 22RV1 cells: AR FL(1). Conditions: 5 nM siRNA, 50 h post transfection, compared to controls. The procedure:
as §1, §2
(In general: In western blotting, separated proteins are transferred to a membrane and probed.)

Take “XD-01834: AR siRNA with chemical modification, Id # 2923; sense X05363 (SEQ ID NO: 193), antisense X05364 (SEQ ID NO: 194) (sense mCmUfAmUfUmGfAmUfAmAfAmUfUmCfCmGfAmAfGdT*dT; antisense fCfUmUfCmGfGmAfAmUfUmUfAmUfCmAfAmUfAmGdT*dT)”: in the data set on AR-SV(3), the “% KD AR Protein 22RV1 AR-SV(3)” value was 79%. In addition, the “% KD AR Protein 22RV1 AR-SV(2)” value in the data set with AR-SV(2) worked out at 91%. Further, the “% KD AR Protein LNCaP AR FL” value in data set [1] is listed as 91%. In the data set on AR FL(1), the “% KD AR Protein 22RV1 AR FL(1)” value was found to be 90%.
As for “XD-01857: AR siRNA with chemical modification, Id # 3473; sense X05409 (SEQ ID NO: 239), antisense X05410 (SEQ ID NO: 240) (sense mCmCfGmAfAmUfGmAfGmGfCmAfCmCfUmCfUmCfUdT*dT; antisense fAfGmAfGmAfGmGfUmGfCmCfUmCfAmUfUmCfGmGdT*dT)”, the “% KD AR Protein 22RV1 AR-SV(3)” value in the data set on AR-SV(3) is given as 1%. For the same substance, the “% KD AR Protein 22RV1 AR-SV(2)” value in the data set on AR-SV(2) is −7%. Moreover, the “% KD AR Protein LNCaP AR FL” value in data set [1] was determined as 100%. The “% KD AR Protein 22RV1 AR FL(1)” value with AR FL(1) is given as 79%.
The matching figures for “XD-01839: AR siRNA with chemical modification, Id # 2933; sense X05373 (SEQ ID NO: 203), antisense X05374 (SEQ ID NO: 204) (sense mAmUfUmCfCmGfAmAfGmGfAmAfAmAfAmUfUmGfUdT*dT; antisense fAfCmAfAmUfUmUfUmUfCmCfUmUfCmGfGmAfAmUdT*dT)”: 56%, 62%, 93% and 76%.
With “XD-01838: AR siRNA with chemical modification, Id # 2931; sense X05371 (SEQ ID NO: 201), antisense X05372 (SEQ ID NO: 202) (sense mAmAfAmUfUmCfCmGfAmAfGmGfAmAfAmAfAmUfUdT*dT; antisense fAfAmUfUmUfUmUfCmCfUmUfCmGfGmAfAmUfUmUdT*dT)”, the “% KD AR Protein 22RV1 AR-SV(3)” value in the data set on AR-SV(3) came out at 67%. Also, the “% KD AR Protein 22RV1 AR-SV(2)” value in the data set with AR-SV(2) was found to be 65%. In data set [1], the “% KD AR Protein LNCaP AR FL” value is on record as 88%. Also, in the data set with AR FL(1), the “% KD AR Protein 22RV1 AR FL(1)” value was found to be 85%.
The matching figures for “XD-01852: AR siRNA with chemical modification, Id # 3218; sense X05399 (SEQ ID NO: 229), antisense X05400 (SEQ ID NO: 230) (sense mGmCfUmCfUmCfUmAfGmCfCmUfCmAfAmUfGmAfAdT*dT; antisense fUfUmCfAmUfUmGfAmGfGmCfUmAfGmAfGmAfGmCdT*dT)”: 10%, 8%, 34% and 16%.
The matching figures for “XD-01851: AR siRNA with chemical modification, Id # 3217; sense X05397 (SEQ ID NO: 227), antisense X05398 (SEQ ID NO: 228) (sense mUmGfCmUfCmUfCmUfAmGfCmCfUmCfAmAfUmGfAdT*dT; antisense fUfCmAfUmUfGmAfGmGfCmUfAmGfAmGfAmGfCmAdT*dT)”: 8%, 2%, 84% and 50%.
In the case of “XD-01823: AR siRNA with chemical modification, Id # 2739; sense X05341 (SEQ ID NO: 171), antisense X05342 (SEQ ID NO: 172) (sense mAmCfUmGfCmCfAmGfGmGfAmCfCmAfUmGfUmUfUdT*dT; antisense fAfAmAfCmAfUmGfGmUfCmCfCmUfGmGfCmAfGmUdT*dT)”, in the data set on AR-SV(3), the “% KD AR Protein 22RV1 AR-SV(3)” value is −19%. Also, the “% KD AR Protein 22RV1 AR-SV(2)” value with AR-SV(2) is on record as 0%. Moreover, in data set [1], the “% KD AR Protein LNCaP AR FL” value is listed as 79%. For the same substance, the “% KD AR Protein 22RV1 AR FL(1)” value with AR FL(1) is recorded as −5%.
The matching figures for “XD-01847: AR siRNA with chemical modification, Id # 3020; sense X05389 (SEQ ID NO: 219), antisense X05390 (SEQ ID NO: 220) (sense mUmGfGmUfAmAfUmCfUmGfAmAfAmCfUmAfCmAfGdT*dT; antisense fCfUmGfUmAfGmUfUmUfCmAfGmAfUmUfAmCfCmAdT*dT)”: −68%, −10%, 69% and 28%.
The matching figures for “XD-01814: AR siRNA with chemical modification, Id # 1784; sense X05323 (SEQ ID NO: 153), antisense X05324 (SEQ ID NO: 154) (sense mCmAfAmUfUmAfCmUfUmAfGmGfGmGfGmCfAmCfUdT*dT; antisense fAfGmUfGmCfCmCfCmCfUmAfAmGfUmAfAmUfUmGdT*dT)”: −30%, 20%, 94% and −7%.
As for “XD-01844: AR siRNA with chemical modification, Id # 2962; sense X05383 (SEQ ID NO: 213), antisense X05384 (SEQ ID NO: 214) (sense mGmUfCmUfUmCfGmGfAmAfAmUfGmUfUmAfUmGfAdT*dT; antisense fUfCmAfUmAfAmCfAmUfUmUfCmCfGmAfAmGfAmCdT*dT)”, the “% KD AR Protein 22RV1 AR-SV(3)” value with AR-SV(3) stood at 26%. Moreover, the “% KD AR Protein 22RV1 AR-SV(2)” value in the data set with AR-SV(2) turned out to be 54%. Besides, the “% KD AR Protein LNCaP AR FL” value in data set [1] amounted to 81%. The “% KD AR Protein 22RV1 AR FL(1)” value in the data set on AR FL(1) stood at 56%.
Regarding “XD-01830: AR siRNA with chemical modification, Id # 2824; sense X05355 (SEQ ID NO: 185), antisense X05356 (SEQ ID NO: 186) (sense mGmUfCmAfCmUfAmUfGmGfAmGfCmUfCmUfCmAfCdT*dT; antisense fGfUmGfAmGfAmGfCmUfCmCfAmUfAmGfUmGfAmCdT*dT)”, the “% KD AR Protein 22RV1 AR-SV(3)” value in the data set with AR-SV(3) turned out to be 76%. For the same substance, in the data set on AR-SV(2), the “% KD AR Protein 22RV1 AR-SV(2)” value is 72%. In data set [1], the “% KD AR Protein LNCaP AR FL” value was 90%. Moreover, in the data set with AR FL(1), the “% KD AR Protein 22RV1 AR FL(1)” value was determined as 75%.
The matching figures for “XD-01850: AR siRNA with chemical modification, Id # 3107; sense X05395 (SEQ ID NO: 225), antisense X05396 (SEQ ID NO: 226) (sense mCmAfUmUfGmAfAmGfGmCfUmAfUmGfAmAfUmGfUdT*dT; antisense fAfCmAfUmUfCmAfUmAfGmCfCmUfUmCfAmAfUmGdT*dT)”: 5%, 14%, 82% and 86%.
